Activity calls are given as the source filed them. No cut-off for these calls is given here.
Columns and labels:
[1] = tested on: MCF7; test: Induction of apoptosis in human MCF7 cells assessed as late apoptotic cells at 12.5 nM measured after 48 hrs by AnnexinV/PI double staining assays (reference value: 2.60%); format: functional
[2] = biological target: T1, Tubulin (Homo sapiens) (UniProt P68371+Q9H4B7+P0DPH7+P68366+Q13509+Q71U36+P04350+Q3ZCM7+P07437+P68363+Q9BQE3+Q6PEY2+Q13885+Q9BVA1+Q9BUF5); test: Inhibition of microtubule assembly in human MCF7 cells assessed as disrupted microtubule network at 50 uM measured after 24 hrs incubation by anti-alpha-tubulin antibody (green) and Hoechst 33342 (blue) stained nuclei were obtained under microscopy; format: cell-based
[3] = tested on: HMEC-1; test: Angiogenic activity against human HMEC-1 cells assessed as decrease in vascular area measured after 48 hrs by Endothelial tube formation assay; format: functional, cell-based; details: dose 1-100 nM
[4] = tested on: MCF7; test: Induction of apoptosis in human MCF7 cells assessed as multinuclear cells at 5 nM measured after 24 hrs by fluorescent microscopy; format: functional
[5] = tested on: MCF7; test: Induction of apoptosis in human MCF7 cells assessed as late apoptotic cells at 25 nM measured after 48 hrs by AnnexinV/PI double staining assays (reference value: 2.60%); format: functional
[6] = tested on: MCF7; test: Induction of apoptosis in human MCF7 cells assessed as viable cells at 12.5 nM measured after 48 hrs by AnnexinV/PI double staining assays (reference value: 91.20%); format: functional; details: read-out: Activity
[7] = tested on: HMEC-1; test: Anti-proliferative activity against human HMEC-1 cells measured after 48 hrs; format: functional, cell-based; details: HMEC-1, 48 h
[8] = tested on: MIA PaCa-2; test: Antiproliferation activity against human MIA PaCa-2 cells measured after 72 hrs incubation by MTT assay; format: functional, cell-based; details: MIA PaCa-2, 72 h
[9] = tested on: L02; test: Antiproliferation activity against human L02 cells measured after 72 hrs incubation by MTT assay; format: functional, cell-based; details: L02, 72 h
[10] = tested on: MCF7; test: Induction of cell cycle arrest in human MCF7 cells assessed as accumulation of cells at G0/G1 phase at 100 nM measured after 24 hrs by flow cytometry (reference value: 61.73%); format: functional
[11] = tested on: MCF7; test: Induction of apoptosis in human MCF7 cells assessed as necrotic cells at 25 nM measured after 48 hrs by AnnexinV/PI double staining assays (reference value: 0.89%); format: functional
[12] = tested on: MCF7; test: Induction of cell cycle arrest in human MCF7 cells assessed as accumulation of cells at G0/G1 phase at 500 nM measured after 24 hrs by flow cytometry (reference value: 61.73%); format: functional
[13] = biological target: T1, Tubulin (Homo sapiens); test: In vitro inhibition of microtubule (unknown origin) assembly at 10 uM; format: protein-complex assay
[14] = tested on: MCF7; test: Induction of apoptosis in human MCF7 cells assessed as necrotic cells at 12.5 nM measured after 48 hrs by AnnexinV/PI double staining assays (reference value: 0.89%); format: functional
[15] = tested on: MCF7; test: Induction of apoptosis in human MCF7 cells assessed as early apoptotic cells at 12.5 nM measured after 48 hrs by AnnexinV/PI double staining assays (reference value: 5.32%); format: functional
[16] = tested on: MCF7; test: Induction of apoptosis in human MCF7 cells assessed as necrotic cells at 6.25 nM measured after 48 hrs by AnnexinV/PI double staining assays (reference value: 0.89%); format: functional
[17] = tested on: MCF7; test: Antiproliferation activity against human MCF7 cells measured after 72 hrs incubation by MTT assay; format: functional, cell-based; details: MCF7, 72 h
[18] = tested on: MCF7; test: Induction of cell cycle arrest in human MCF7 cells assessed as increase in phosphorylation of histone H3 at […] by Western blot analysis; format: functional, cell-based; details: dose lower 6.25 µM
[19] = tested on: MCF7; test: Induction of cell cycle arrest in human MCF7 cells assessed as accumulation of cells at G2/M phase at 500 nM measured after 24 hrs by flow cytometry (reference value: 22.84%); format: functional
[20] = tested on: MCF7; test: Induction of cell cycle arrest in human MCF7 cells assessed as accumulation of cells at G0/G1 phase at 4 nM measured after 24 hrs by flow cytometry (reference value: 61.73%); format: functional
[21] = tested on: MCF7; test: Induction of apoptosis in human MCF7 cells assessed as viable cells at 25 nM measured after 48 hrs by AnnexinV/PI double staining assays (reference value: 91.20%); format: functional; details: read-out: Activity
[22] = tested on: MCF7; test: Induction of apoptosis in human MCF7 cells assessed as early apoptotic cells at 25 nM measured after 48 hrs by AnnexinV/PI double staining assays (reference value: 5.32%); format: functional
[23] = biological target: Tubulin beta (Homo sapiens) (UniProt P68371+Q9H4B7+Q13509+P04350+Q3ZCM7+P07437+Q13885+Q9BVA1+Q9BUF5+A6NNZ2); test: Binding affinity to beta-tubulin colchicine binding site in human MCF7 cells assessed as inhibition of EBI-beta-tubulin adduct band formation preincubated for 2 hrs followed by EBI addition measured after 2 hrs by EBI competition based Western blotting analysis; format: cell-based; details: dose 12.5-100 nM
[24] = tested on: MDA-MB-231; test: Antiproliferation activity against human MDA-MB-231 cells measured after 72 hrs incubation by MTT assay; format: functional, cell-based; details: MDA-MB-231, 72 h
[25] = tested on: MCF7; test: Induction of apoptosis in human MCF7 cells assessed as early apoptotic cells at 6.25 nM measured after 48 hrs by AnnexinV/PI double staining assays (reference value: 5.32%); format: functional
[26] = tested on: NCI-H460; test: Antiproliferation activity against human NCI-H460 cells measured after 72 hrs incubation by MTT assay; format: functional, cell-based; details: NCI-H460, 72 h
[27] = tested on: MCF7; test: Induction of cell cycle arrest in human MCF7 cells assessed as accumulation of cells at G2/M phase at 25 nM measured after 24 hrs by flow cytometry (reference value: 22.84%); format: functional
[28] = tested on: MCF7; test: Induction of apoptosis in human MCF7 cells assessed as necrotic cells at 50 nM measured after 48 hrs by AnnexinV/PI double staining assays (reference value: 0.89%); format: functional
[29] = tested on: KB; test: Antiproliferation activity against human KB cells measured after 72 hrs incubation by MTT assay; format: functional, cell-based
[30] = biological target: T1, Tubulin (Homo sapiens); test: Inhibition of microtubule assembly in human HepG2 cells assessed as disrupted microtubule network at 50 uM measured after 24 hrs incubation by anti-alpha-tubulin antibody (green) and Hoechst 33342 (blue) stained nuclei were obtained under microscopy; format: cell-based
[31] = tested on: MCF7; test: Induction of apoptosis in human MCF7 cells assessed as karyorrhexis at 5 nM measured after 24 hrs by fluorescent microscopy; format: functional
[32] = tested on: MCF7; test: Induction of cell cycle arrest in human MCF7 cells assessed as increase in cyclin B1 protein expression at […] by Western blot analysis; format: functional, cell-based; details: dose lower 6.25 µM
[33] = tested on: MCF7; test: Induction of apoptosis in human MCF7 cells assessed as late apoptotic cells at 6.25 nM measured after 48 hrs by AnnexinV/PI double staining assays (reference value: 2.60%); format: functional
[34] = tested on: MCF7; test: Induction of apoptosis in human MCF7 cells assessed as viable cells at 6.25 nM measured after 48 hrs by AnnexinV/PI double staining assays (reference value: 91.20%); format: functional; details: read-out: Activity
[35] = tested on: MCF7; test: Induction of cell cycle arrest in human MCF7 cells assessed as accumulation of cells at G2/M phase at 100 nM measured after 24 hrs by flow cytometry (reference value: 22.84%); format: functional
[36] = tested on: MCF7; test: Induction of cell cycle arrest in human MCF7 cells assessed as accumulation of cells at G0/G1 phase at 25 nM measured after 24 hrs by flow cytometry (reference value: 61.73%); format: functional
[37] = tested on: MCF7; test: Induction of apoptosis in human MCF7 cells assessed as viable cells at 50 nM measured after 48 hrs by AnnexinV/PI double staining assays (reference value: 91.20%); format: functional; details: read-out: Activity
[38] = tested on: MCF7; test: Induction of apoptosis in human MCF7 cells assessed as late apoptotic cells at 50 nM measured after 48 hrs by AnnexinV/PI double staining assays (reference value: 2.60%); format: functional
[39] = tested on: MCF7; test: Induction of apoptosis in human MCF7 cells assessed as early apoptotic cells at 50 nM measured after 48 hrs by AnnexinV/PI double staining assays (reference value: 5.32%); format: functional
[40] = tested on: MCF7; test: Induction of cell cycle arrest in human MCF7 cells assessed as accumulation of cells at G2/M phase at 4 nM measured after 24 hrs by flow cytometry (reference value: 22.84%); format: functional
[41] = tested on: HMEC-1; test: Anti-migration activity in human HMEC-1 cells assessed as inhibition of cell migration at 5 nM measured after 48 hrs by Scratching assay; format: functional, cell-based
[42] = tested on: NCI/ADR-RES; test: Antiproliferation activity against human MCF7/ADR cells measured after 72 hrs incubation by MTT assay; format: functional, cell-based

With COc1cc(NS(=O)(=O)c2ccc3c(c2)c2ccc(O)cc2n3C)c(OC)cc1Cl the Activity [1] was 7.54%, the inhibition [2] was “Active” and the Activity [3] was “Dose-Dependent Effect”. The Activity [4] was 46.27%, the Activity [5] was 13.75% and the viability at 0.0125 µM [6] was 49.2%. It also gave an IC50 [7] of 6.42 nM, an IC50 [8] of 0.81 nM and an IC50 [9] of 53.7 nM. For the same compound, the Activity [10] was 3.93%, the Activity [11] was 0.06% and the Activity [12] was 3.82%. For the same compound, the inhibition [13] was “Active”, the Activity [14] was 0.06% and the Activity [15] was 43.24%. The Activity [16] was 0.05%, the IC50 [17] was 24.3 nM and the Activity [18] was “Dose-Dependent Effect”. It also gave an Activity [19] of 50.6%, an Activity [20] of 37.05% and a viability at 0.025 µM [21] of 36.8%. The Activity [22] was 49.44%, the Activity [23] was “Active” and the IC50 [24] was 5.19 nM. For the same compound, the Activity [25] was 34.89%, the IC50 [26] was 12.4 nM and the Activity [27] was 17.8%. For the same compound, the Activity [28] was 0.07%, the IC50 [29] was 9.37 nM and the inhibition [30] was “Active”. For the same compound, the Activity [31] was 42.87%, the Activity [32] was “Dose-Dependent Effect” and the Activity [33] was 8.89%. The viability at 0.00625 µM [34] was 56.2%, the Activity [35] was 17.8% and the Activity [36] was 6.65%. It also gave a viability at 0.05 µM [37] of 46.3%, an Activity [38] of 10.8% and an Activity [39] of 42.87%. The Activity [40] was 17.8%, the inhibition [41] was “Active” and the IC50 [42] was 7.56 nM.
